Assay results reported in patent publication US12718601B2, “Using machine learning and/or neural networks to validate stem cells and their derivatives (2-D cells and 3-D tissues) for use in cell therapy and tissue engineered products” (The United States of America, as represented by the …, priority 2018, dated 2026).

Experiments:
Assay type in all cases: cell-based, human
iRPE [1] = assay: Electrophysiological measurements (TEP and TER) of iRPE monolayers; conditions: treated iRPE relative to control
Protocol: Electrical resistance measurements used for prediction of the iRPE monolayers were measured using an EVOM2 and EndOhm chamber (World Precision Instruments, EVOM2 and ENDOHM-12 respectively). Each line was measured for its resistance across 12 wells per treatment, per week. Intracellular transepithelial potential and resistance measurements in response to 1 mM potassium (Sigma Aldrich, P5405-1 KG) and 100 μM ATP (Sigma Aldrich, A9187-500 MG) were done identically to that of previous reports (Miyagishima et al., In Pursuit of Authenticity: Induced Pluripotent Stem Cell-Derived Retinal Pigment Epithelium for Clinical Applications, STEM CELLS Transl. Med. 5, 1562-1574 (2016)). Briefly, RPE monolayer cultures derived from iPSC lines were mounted on a modified “Ussing” chamber as described previously (Maminishkis et al., The P2Y2 Receptor Agonist INS37217 Stimulates RPE Fluid Transport In Vitro and Retinal Reattachment, Rat. Invest. Ophthalmol. Vis. Sci. 43, 3555-3566 (2002); Peterson et al., Extracellular ATP Activates Calcium Signaling, Ion, and Fluid Transport in Retinal Pigment Epithelium, J. Neurosci. 17, 2324-2337 (1997)). […] The signals from intracellular microelectrodes were referenced to the basal bath to measure the basolateral membrane potential (Vb) and the apical membrane potential (Va) was calculated by the equation: […]. […]

iRPE [2] = assay: Single cell image features from DNN-S segmented QBAM images of drug-treated iRPE; conditions: for CPI_IntegratedIntensityEdge.K (Intensity 10), Mean / ML_MinIntensity.Mean (Intensity 1), Mean: Healthy-2 iRPE, 3.0 μmol/L Aphidicolin or 30.0 μM HPI4
Protocol: QBAM imaging and live cell segmentation allows for hundreds of cell image features to be measured and tracked non-invasively on individual cells throughout iRPE maturation. Thus, the trained DNN-S was used to segment QBAM images of living iRPE (Healthy-1 and Healthy-2 donors) treated with Aphidicolin, HPI-4, or nothing (control). Previously published cell image features and intensity metrics known to correlate to RPE maturation and health were then assessed for significance. […] Importantly, this technique allows for unprecedented hierarchical granularity to the data; enabling not just whole well “bulk” tissue measurements, but also as a function of field of view or at an individual cell level Clustering of treatments based off of two features known to be important to RPE maturation and health, cell area and mean cell intensity were performed. Cell minimum intensity, a new metric related to iRPE function identified using SML, is described further below.
Following differentiation, iRPE from donors Healthy-1 and Healthy-2 were placed on a 12-well 0.4 μm polycarbonate transwell plate (Corning, 3401) at a seeding density of 500,000 cells/ml in 0.5 ml. Only six of the 12 wells were used to minimize the time spent outside of the incubator while imaging. QBAM imaging and drug treatments started two or one weeks after seeding for Healthy-1 and Healthy-2 iRPE, respectively. For each culture plate, two of the six wells were treated with either 3.0 μmol/L Aphidicolin (Sigma Aldrich, A0781-10 MG), 30.0 μM HPI4 (Hedgehog Pathway Inhibitor 4, Sigma Aldrich, H4541-25 MG), or no additives to the RPEMM culture medium. RPEMM was changed three times a week and imaged on the same day every week immediately after medium change. To prevent the culture plate lid from fogging during imaging, culture medium in wells were replaced with room temperature RPEMM (with drugs if needed) immediately before imaging since room temperature medium minimized condensation. RPEMM without drug was added to a well without any cells in it to capture the bright reference image for QBAM imaging. For each well, a 4×3 grid of overlapping images were captured (10-15% image overlap) for image stitching using a Zeiss AxioImager M2 microscope with a 10× objective. For Healthy-2 and Healthy-1, a total of six plates were prepared, with six wells occupied in each plate, yielding 36 total wells imaged and analyzed. The iRPE from AMD samples were previously reported by Sharma et al (Sharma et al., 2018), and the iRPE from OCA donors were cultured as described above, but were only imaged after they had matured and were fixed with PFA. In total five well replicates of OCA8, six replicates from OCA9, four replicates of OCA26, eight replicates of OCA71, and four replicates of OCA103 were imaged. For AMD data 1 replicate of AMD1 Clone A, 5 replicates of AMD1 Clone B, 1 Replicate of AMD2 Clone A, 5 replicates of AMD2 Clone B, 1 replicate of AMD2 Clone C, 1 replicate of AMD3 Clone A, 5 replicates of AMD3 Clone B, and 1 replicate of AMD3 Clone C were imaged.
No preprocessing was performed on QBAM images before they were processed with the DNN-S. The structure of the DNN-S was the same as that used to segment the fluorescent images, except the input image had three channels instead of one. The three channels were three QBAM images captured of the same field of view, but each QBAM image was captured at a different wavelength (488 nm, 561 nm, and 633 nm).
In order to extract as many cell-level features as possible, multiple widely were leveraged used image libraries for feature extraction that have been integrated into WIPP. While the feature values for the same feature definitions might vary, they provide insights on the amount of variation introduced not only by image acquisition but also by image processing. […]

iRPE [3] = assay: QBAM imaging of drug-treated iRPE (image absorbance); conditions: Healthy-1 and Healthy-2 iRPE, 8-week culture, weekly QBAM imaging
Source text: iRPE from each healthy donor (Healthy-1, Healthy-2) were imaged to determine if QBAM imaging affected cell maturation and could measure a large range in variation of iRPE pigmentation. This was done using three culture conditions: (1) control iRPE (no treatment), (2) iRPE treated with a known inducer of RPE maturation (Aphidicolin), and (3) iRPE treated with a known inhibitor of RPE maturation (hedgehog pathway inhibitor-4, HPI4).
Following differentiation, iRPE from donors Healthy-1 and Healthy-2 were placed on a 12-well 0.4 μm polycarbonate transwell plate (Corning, 3401) at a seeding density of 500,000 cells/ml in 0.5 ml. Only six of the 12 wells were used to minimize the time spent outside of the incubator while imaging. QBAM imaging and drug treatments started two or one weeks after seeding for Healthy-1 and Healthy-2 iRPE, respectively. For each culture plate, two of the six wells were treated with either 3.0 μmol/L Aphidicolin (Sigma Aldrich, A0781-10 MG), 30.0 μM HPI4 (Hedgehog Pathway Inhibitor 4, Sigma Aldrich, H4541-25 MG), or no additives to the RPEMM culture medium. RPEMM was changed three times a week and imaged on the same day every week immediately after medium change. […] For Healthy-2 and Healthy-1, a total of six plates were prepared, with six wells occupied in each plate, yielding 36 total wells imaged and analyzed. […]

iRPE [4] = assay: mRNA and protein expression of maturation markers in iRPE; conditions: Aphidicolin treated iRPE compared with HPI4 treated iRPE
Protocol: Tissue preparation for immunohistochemistry was done by placing wells in 4% (mass/volume) paraformaldehyde (Electron Microscopy Science, 157-4-100) for 20 minutes. Immunohistochemistry blocking solution (IBS) consisted of 500 ml of 1× DPBS (Dulbecco's phosphate-buffered saline, Life Technologies, 14190250), 5% (mass/volume) bovine serum albumin (Sigma Aldrich, A3311), 0.5% (mass/volume) Triton X-100 (Sigma Aldrich, X100-100ML), and 0.5% (mass/volume) TWEEN20 (Sigma Aldrich, P2287-100ML). Fixed cells were washed with IBS three times and permeabilized for 2 hours with IBS at room temperature. Cells were then stained with the following primary antibody for 1 hour at room temperature: RPE65 (anti-RPE65 monoclonal antibody [1:300, Abcam, ab13826), Ezrin (monoclonal anti-ezrin antibody, 1:100, Sigma Aldrich, E8897), or GT335 (anti-polyglutamylation modification monoclonal antibody, 1:1000, Adipogen, AG-20B-0020). […] RNA was quantified using an ND-1000 spectrophotometer (Nanodrop Technologies) and the manufacturers protocol. cDNA synthesis was performed using the Script cDNA Synthesis Kit (Bio-Rad, 1708891) and the manufacturer provided protocols. […] An HPI4 well had to be excluded due to extremely low RNA extraction from the well and an insufficient quantity of cDNA being amplified to measured. […] Data was analyzed using R software (R Development Core Team, 2011).

Question: For `C[C@@]1(CO)[C@H](O)CC[C@@]2(C)[C@H]1CC[C@H]1C[C@@H]3C[C@@]12CC[C@]3(O)CO` [Aphidicolin], which “baseline electrical response (TEP and TER) and its change to 1 mM potassium (K+) or 100 μM ATP” value (iRPE [1]) is on record?
Answer: The value was “significantly greater”.

Question: What about the “CPI_IntegratedIntensityEdge.K (Intensity 10), Mean” value (shortened to “CPI_IntegratedIntensityEdge.K”) (iRPE [2]; week 2) of the same compound?
Answer: Its value is 5.87.

Question: And the “ML_MinIntensity.Mean (Intensity 1), Mean” value (iRPE [2]; week 2)?
Answer: The value was 144.67.

Question: And the “CPI_IntegratedIntensityEdge.K” value (iRPE [2]; week 3)?
Answer: Its value is 6.07.

Question: What about the “ML_MinIntensity.Mean (Intensity 1), Mean” value (iRPE [2]; week 3) of the same compound?
Answer: Its value is 204.31.

Question: And the “CPI_IntegratedIntensityEdge.K” value (iRPE [2]; week 4)?
Answer: The value was 5.3.

Question: What about the “CPI_IntegratedIntensityEdge.K” value (iRPE [2]; week 5) of the same compound?
Answer: The value was 5.59.

Question: What about the “ML_MinIntensity.Mean (Intensity 1), Mean” value (iRPE [2]; week 5) of the same compound?
Answer: Its value is 183.77.

Question: And the “CPI_IntegratedIntensityEdge.K” value (iRPE [2]; week 6)?
Answer: The value was 4.76.

Question: What about the “ML_MinIntensity.Mean (Intensity 1), Mean” value (iRPE [2]; week 6) of the same compound?
Answer: Its value is 185.15.

Question: What about the “CPI_IntegratedIntensityEdge.K” value (iRPE [2]; week 7) of the same compound?
Answer: The value was 4.53.

Question: And the “ML_MinIntensity.Mean (Intensity 1), Mean” value (iRPE [2]; week 7)?
Answer: Its value is 180.84.

Question: What about the “image absorbance over time” value (iRPE [3]) of the same compound?
Answer: Its value is “increasing image absorbance”.

Question: What about the “mRNA and protein expression of maturation markers” value (iRPE [4]) of the same compound?
Answer: Its value is “Higher”.

Question: With `N#CC(=C(O)c1ccc(Cl)cc1Cl)c1nc2ccccc2c(=O)[nH]1` [HPI4] as the compound, how does the “baseline electrical response (TEP and TER) and its change to 1 mM potassium (K+) or 100 μM ATP” value (iRPE [1]) read?
Answer: The value was “significantly lower”.

Question: And the “mean number of neighbors each iRPE cell had” value (iRPE [2]; Healthy-1 and Healthy-2 iRPE, across all time points, p<0.001)?
Answer: The value was “significantly lower”.

Question: What about the “CPI_IntegratedIntensityEdge.K” value (iRPE [2]; week 2) of the same compound?
Answer: The value was 5.11.

Question: And the “ML_MinIntensity.Mean (Intensity 1), Mean” value (iRPE [2]; week 2)?
Answer: Its value is 141.81.

Question: What about the “CPI_IntegratedIntensityEdge.K” value (iRPE [2]; week 3) of the same compound?
Answer: The value was 6.45.

Question: What about the “ML_MinIntensity.Mean (Intensity 1), Mean” value (iRPE [2]; week 3) of the same compound?
Answer: Its value is 179.97.

Question: And the “CPI_IntegratedIntensityEdge.K” value (iRPE [2]; week 4)?
Answer: Its value is 6.45.

Question: What about the “ML_MinIntensity.Mean (Intensity 1), Mean” value (iRPE [2]; week 4) of the same compound?
Answer: The value was 104.78.

Question: And the “CPI_IntegratedIntensityEdge.K” value (iRPE [2]; week 5)?
Answer: The value was 7.21.

Question: What about the “ML_MinIntensity.Mean (Intensity 1), Mean” value (iRPE [2]; week 5) of the same compound?
Answer: The value was 133.78.

Question: And the “CPI_IntegratedIntensityEdge.K” value (iRPE [2]; week 6)?
Answer: Its value is 8.06.

Question: What about the “ML_MinIntensity.Mean (Intensity 1), Mean” value (iRPE [2]; week 6) of the same compound?
Answer: The value was 126.02.

Question: And the “CPI_IntegratedIntensityEdge.K” value (iRPE [2]; week 7)?
Answer: Its value is 8.06.

Question: What about the “ML_MinIntensity.Mean (Intensity 1), Mean” value (iRPE [2]; week 7) of the same compound?
Answer: Its value is 110.26.

Question: What about the “image absorbance over time” value (iRPE [3]) of the same compound?
Answer: The value was “decreasing trend in absorbance”.
